# Measured values taken from patent US7271239B2, “D-isomers of antimicrobial peptide” (The Research Foundation of State University of New York, priority 2004, dated 2007).
# Where two headings read alike, the source gives them in different places.
# What was measured:
# HOK-16B cells = assay: MTS cell viability assay; format: cell-based, human
# Procedure: FIG. 6. Effect of peptides on viability of (A) HOK-16B cells and (B) KB cells. The toxic effect of the compounds on the cells was determined by calorimetric assay using a CellTiter 96 AQueous One Solution cell proliferation assay (MTS) kit, as described in the text. Briefly, the cells were grown to about 80% confluence, harvested, washed, resuspended in KGM, and dispensed into a 96-well microtiter plate. They were then exposed to different concentrations of peptides or amphotericin B at 37° C. and 5% CO2 for 1.5 h. MTS agent was then added to each well, and the cells were further incubated for 4 h. Absorbance at 490 nm was then measured using a microplate reader. MTS reduction is an indication of cell viability. The viability is expressed as relative absorbance (percentage of no-agent control). Data represent the average and standard deviation of results from two independent experiments.
# Cell culture. The HOK-16B cell line (originated from primary normal human keratinocytes) was kindly provided by No-Hee Park, UCLA School of Dentistry. The KB cell line was obtained from the American Type Culture Collection (CLL-17). […]
# MTS cell viability assay. The toxic effect of the compounds on the cells was determined by calorimetric assay using a CellTiter 96 AQueous One Solution cell proliferation assay (MTS) kit (Promega, Wis.). […] Absorbance at 490 nm was then measured using a microplate reader. […]
# C. albicans strain DIS = format: in vivo, mice ICR strain; conditions: for Log10 cfu/ml (Mean + S.D.), Initial infection: before treatment (baseline)
# Procedure: A previously described protocol was adopted (14). Mice were immunosuppressed with two subcutaneous injections of prednisolone at a dose of 100 mg/kg body weight 1 day prior to and 3 days after the infection with C. albicans. Tetracycline hydrochloride in drinking water at a concentration of 0.83 mg/ml was given to mice beginning 1 day before infection. Mice were anesthetized by intramuscular injection with 60 μl of 2 mg/ml chlorpromazine chloride, using a dose of 10 mg/kg body weight of mice. While under anesthesia, a small cotton ball soaked in 0.1 ml aliquot of C. albicans cell suspension (2.5×10^6 cells) was used to swab the entire oral cavity of the anesthetized mice.
# Visual evaluation was done by carefully extending the tongue of randomly picked mice using blunt-end forceps, while the mice were under isoflurane sedation. Presence of thick, white curd-like patches indicated candidal infection. At day 3 post-infection, all animals were examined for evidence oral candidal infection by microbiological evaluation. The entire oral cavity of anesthetized mice was swabbed using a sterile calcium alginate disposable swab (Fisher Scientific), dampened with sterile PBS. Cells were then released from the swab into 1 ml PBS. Serial 10-fold dilutions were plated on SDA plates supplemented with streptomycin (30 μg/ml). Plates were incubated for 24 h at 37° C. and yeast cell count expressed as log10 of cfu/ml.
# Tongues from sacrificed animals were used for histological studies. They were fixed in 10% formalin and embedded in paraffin. Serial five-μm sections were cut from the paraffin block and stained with periodic acid-Schiff (PAS) reagent for detection of C. albicans.
# Mice were randomly divided into various treatment groups with 8 mice per group. Antifungal agents were employed on an equimolar basis, and included amphotericin B (1.75%), clotrimazole (0.66%), MUC7 12-mer (RKSYKCLHKRCR—SEQ ID NO:1) (L; 3%), MUC7 12-mer (D; 3%), MUC7 12-mer (D; 3%) containing Na2EDTA (1 mM), MUC7 12-mer (L; 3%) containing protease inhibitor cocktail (PIC) (1%), and Hsn5 12-mer (AKRHHGYKRKFH—SEQ ID NO:2) (3%). They were all emulsified in Pluronic F127, (20% lipoil), a polymer of polyoxyethylene and polyoxypropylene (non-ionic surfactant). Animals were anesthetized using isoflurane; while sedated, about 30 to 40 μl of the antifungal emulsion was applied on the tongue and spread throughout oral cavity. The treated mice were under sedation for additional 5 min under isoflurane. Animals were not given access to food and water for 1 h following the application.
# Fungal burden was re-evaluated quantitatively after 3 and 6 days of treatment, using the same technique as the one used for initial evaluation. Randomly picked mice from each group was subjected to histopathological evaluation, after 6 days of treatment. Blood from randomly sacrificed mice from each treatment group was analyzed for any changes in the serum liver (AST, ALT, ALP etc.) and kidney enzymes (BUN, glucose, creatinine etc) levels.
# Statistical analysis was performed using a significance level set at 0.05 (α) and a significant group size (n=8). Initial infection and antifungal treatment efficacy were determined using analysis of variance (ANOVA), expressed as log10 cfu, and Scheffe's multiple comparison test was used to determine the differences between various treatment groups.
# [1] = Experimental study I, topical oral application
compound,measurement,setting,value
C[C@@H]1[C@H](O)[C@@H](C)/C=C/C=C/C=C/C=C/C=C/C=C/C=C/[C@H](O[C@@H]2O[C@H](C)[C@@H](O)[C@H](N)[C@@H]2O)C[C@@H]2O[C@](O)(C[C@@H](O)C[C@@H](O)[C@H](O)CC[C@@H](O)C[C@@H](O)CC(=O)O[C@H]1C)C[C@H](O)[C@H]2C(=O)O [Amphotericin B],IC50,HOK-16B cells,100 µM
same,"Log10 cfu/ml (Mean + S.D.), Initial infection","C. albicans strain DIS; Experimental study I, day 3 post-infection",4.52 ± 0.15 Log10 cfu/ml
same,"Log10 cfu/ml (Mean + S.D.), 3-days treatment",C. albicans strain DIS; [1],1.79 ± 1.16 Log10 cfu/ml
same,"Log10 cfu/ml (Mean + S.D.), 6-days treatment",C. albicans strain DIS; [1],0.75 ± 1.04 Log10 cfu/ml
same,"Log10 cfu/ml (Mean + S.D.), 3-days treatment",C. albicans strain DIS; Experimental study II,1.23 ± 1.44 Log10 cfu/ml
same,"Log10 cfu/ml (Mean + S.D.), Initial infection",C. albicans strain DIS; Experimental study II,4.26 ± 0.54 Log10 cfu/ml
same,"histopathological finding in tongue sections (C. albicans, PAS staining)",C. albicans strain DIS; end of treatment,healthy tissue and absence of visible microorganisms
